# Measured values taken from PMC11742723, “The clinical-stage drug BTZ-043 accumulates in murine tuberculosis lesions and efficiently acts against Mycobacterium tuberculosis” (Nature Communications, 2025).
# Several values for one entry are separate records, joined by “and”; a condition that tells them apart may be missing. Identical values can stand only once.
# Tests used:
# Mtb [1] = tested on: Mtb; design: method as in PMID 37791784, PMID 34370580; settings: in vitro, ref PMID 37791784, PMID 34370580; cited from earlier work
# Mtb [2] = tested on: Mtb; design: method as in PMID 28821804; settings: NOS2-deficient mice, 50 mg/kg/day, cited from earlier work
# in vitro = settings: human
# Mtb H37Rv = experiment: BTZ-043 treatment for 10 days of Mtb-infected IL-13tg mice (pulmonary CFU); format: in vivo, Mycobacterium tuberculosis
# [3] = IL-13tg, mouse, in vivo
# [4] = Impact of γ-irradiation on BTZ-043 in lung cryosections of treated mice (LC-MS/MS, MALDI imaging)
# Mtb [5] = tested on: Mtb; design: method as in PMID 39793592; settings: phase IIa EBA, 250 mg - 1750 mg once daily for 14 days; cited from earlier work
# H37Rv = settings: in vitro, against H37Rv; cited from earlier work
# Mtb [6] = tested on: Mtb; design: method as in PMID 37791784; settings: C3HeB/FeJ substrain, 2 months of therapy; cited from earlier work
# [7] = IL-13tg mice, 250 mg/kg/day, 10 days
smiles,measurement,setting,value
C[C@H]1COC2(CCN(c3nc(=O)c4cc(C(F)(F)F)cc([N+](=O)[O-])c4s3)CC2)O1 [BTZ-043],caseum activity assay result,Mtb [1],negative
same,bactericidal activity,Mtb [2]; 4 weeks of treatment,profound bactericidal activity
same,effect on bacterial burden,Mtb [2]; two weeks,hardly reduced the bacterial burden
same,Papp B→A at 120 min,in vitro; Caco-2,6.9 to 12.9 ×10⁻⁶ cm/s
same,"Papp at 120 min, 1 µg/mL","in vitro; Caco-2, Mean Papp",9.44 ×10⁻⁶ cm/s
same,"Papp at 120 min, 4 µg/mL","in vitro; Caco-2, Mean Papp",12.9 ×10⁻⁶ cm/s
same,pulmonary CFU / mouse,"Mtb H37Rv; BTZ-043 [250 mg/kg], 2 weeks of therapy, individual mice, female and male, 250 mg/kg",22635294 CFU / mouse and 34160000 CFU / mouse and 22750000 CFU / mouse and 19564286 CFU / mouse and 20000000 CFU / mouse
same,reduction of the bacterial load versus start of treatment,"Mtb H37Rv; IL-13tg mice lungs, 250 mg/kg/day, 10 days",0.9 log10 CFU
same,reduction of the bacterial burden,"Mtb H37Rv; IL-13tg mice lungs, 250 mg/kg/day, 10 days, versus before treatment",86%
same,bacterial burden after therapy as share of the initial CFU counts,Mtb H37Rv; [7],13.8%
same,mean pulmonary bacterial burden after treatment,Mtb H37Rv; [7],4.8 × 10^7 CFU
same,pulmonary bacterial burden after therapy,"Mtb H37Rv; IL-13tg mice, 250 mg/kg/day, 10 days, mean",7.69 log10 CFU
same,pulmonary CFU counts / mouse,"Mtb H37Rv; IL-13tg mice, female, 10 days BTZ-043 250 mg/kg, 250 mg/kg",22032000 and 27394286
same,penetration into the lesion by MALDI imaging,[3],penetration of BTZ-043 into the lesion was observed
same,concentration at 1 h,"[4]; BALB/c, mouse, 250 mg/kg/day, ng/mg lung cryosection, measurement 2, no gamma irradiation, 1h after BTZ administration, naïve BALB/c 250 mg/kg/day 5 days, single cryosection",1400 ng/g
same,"ng/mg lung cryosection, Mean","[4]; gamma irradiation, 1h after BTZ administration, naïve BALB/c 250 mg/kg/day 5 days, single cryosection",13.81 ng/mg lung cryosection
same,impact of γ-irradiation on the concentration and distribution of BTZ-043,"[4]; lung tissue cryosections, 5.85 kGy",does not impact
same,bacterial killing with increasing dose in TB patients,Mtb [5],no obvious further increase in bacterial killing above daily doses of 1000 mg
same,MIC,H37Rv,1 ng/mL
same,effect on pulmonary bacterial load,Mtb [6],significant reduction of the pulmonary bacterial load
